Experiments:
Test in all cases: Test B pre-/postemergence
Assay type in all cases: in vivo
Parameters in all cases: key: 0 is no effect; 10 is complete control
[1] = test system: pigweed (Amaranthus retroflexus)
Procedure, shortened: (§1)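 Response scores run from 0, meaning no effect, to 10, meaning complete control, assigned by eye relative to controls twelve to sixteen days after spraying. Treatment was both preemergence on planted seed and postemergence on plants at the 1- to 4-leaf stage.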

[2] = test system: crabgrass (Digitaria sanguinalis)
Procedure, shortened: as §1

[3] = test system: momingglory (Ipomoea hederacea)
Procedure, shortened: as §1

[4] = test system: corn (Zea mays)
Procedure, shortened: as §1

[5] = test system: velvetleaf (Abutilon theophrasti)
Procedure, shortened: as §1

[6] = test system: broadleaf signalgrass (Brachiaria decumbens)
Procedure, shortened: as §1

[7] = test system: cocklebur (Xanthium strumarium)
Procedure, shortened: as §1

[8] = test system: wheat (Triticum aestivum)
Procedure, shortened: as §1

[9] = test system: rape (Brassica napus)
Procedure, shortened: as §1

[10] = test system: bedstraw (Galium aparine)
Procedure, shortened: as §1

[11] = test system: blackgrass (Alopecurus myosuroides)
Procedure, shortened: as §1

[12] = test system: wild oat (Avena fatua)
Procedure, shortened: as §1

[13] = test system: sugar beet (Beta vulgaris)
Procedure, shortened: as §1

[14] = test system: soybean (Glycine max)
Procedure, shortened: as §1

Cc1cnc(-c2ccc(C(F)(F)F)cc2)nc1Cn1cc(I)cn1 [Compound 12]
4: Crabgrass plant response rating ([2]; Rate 62 g/ha, Preemergence) | Crabgrass plant response rating ([2]; Rate 125 g/ha, Preemergence) | Morningglory plant response rating ([3]; Rate 62 g/ha, Preemergence) | Velvetleaf plant response rating ([5]; Rate 125 g/ha, Preemergence) | Plant response rating, Velvetleaf ([5]; Rate 250 g/ha, Preemergence) | Plant response rating, Velvetleaf ([5]; Rate 500 g/ha, Preemergence) | Plant response rating, B. signalgrass ([6]; Rate 62 g/ha, Postemergence) | Plant response rating, Wheat ([8]; Rate 500 g/ha, Postemergence) | Bedstraw plant response rating ([10]; Rate 125 g/ha, Preemergence) | Plant response rating, Bedstraw ([10]; Rate 250 g/ha, Preemergence) | Blackgrass plant response rating ([11]; Rate 125 g/ha, Preemergence) | Plant response rating, Blackgrass ([11]; Rate 250 g/ha, Postemergence) | Plant response rating, Blackgrass ([11]; Rate 500 g/ha, Postemergence) | Plant response rating, Wild oats ([12]; Rate 250 g/ha, Postemergence) | Plant response rating, Wild oats ([12]; Rate 250 g/ha, Preemergence) | Plant response rating, Wild oats ([12]; Rate 500 g/ha, Preemergence)
6: Morningglory plant response rating ([3]; Rate 125 g/ha, Preemergence) | Plant response rating, Rape ([9]; Rate 250 g/ha, Preemergence) | Plant response rating, Rape ([9]; Rate 500 g/ha, Preemergence) | Plant response rating, Blackgrass ([11]; Rate 250 g/ha, Preemergence) | Plant response rating, Blackgrass ([11]; Rate 500 g/ha, Preemergence) | Sugarbeets plant response rating ([13]; Rate 62 g/ha, Preemergence)
7: Redroot pigweed plant response rating ([1]; Rate 62 g/ha, Preemergence) | Plant response rating, Velvetleaf ([5]; Rate 62 g/ha, Postemergence) | Plant response rating, Velvetleaf ([5]; Rate 125 g/ha, Postemergence) | Plant response rating, B. signalgrass ([6]; Rate 250 g/ha, Postemergence) | Plant response rating, B. signalgrass ([6]; Rate 500 g/ha, Postemergence) | Plant response rating, Rape ([9]; Rate 62 g/ha, Postemergence) | Plant response rating, Bedstraw ([10]; Rate 62 g/ha, Postemergence) | Plant response rating, Sugarbeets ([13]; Rate 62 g/ha, Postemergence)
1: Blackgrass plant response rating ([11]; Rate 62 g/ha, Preemergence) | Wild oats plant response rating ([12]; Rate 62 g/ha, Preemergence)
3: Plant response rating, Crabgrass ([2]; Rate 125 g/ha, Postemergence) | Plant response rating, Crabgrass ([2]; Rate 250 g/ha, Postemergence) | Plant response rating, Crabgrass ([2]; Rate 500 g/ha, Postemergence) | Plant response rating, Corn ([4]; Rate 250 g/ha, Postemergence) | Plant response rating, Corn ([4]; Rate 500 g/ha, Postemergence) | Velvetleaf plant response rating ([5]; Rate 62 g/ha, Preemergence) | B. signalgrass plant response rating ([6]; Rate 62 g/ha, Preemergence) | Plant response rating, Cocklebur ([7]; Rate 500 g/ha, Preemergence) | Plant response rating, Wheat ([8]; Rate 62 g/ha, Postemergence) | Plant response rating, Wheat ([8]; Rate 125 g/ha, Postemergence) | Plant response rating, Wheat ([8]; Rate 250 g/ha, Postemergence) | Plant response rating, Blackgrass ([11]; Rate 125 g/ha, Postemergence) | Plant response rating, Wild oats ([12]; Rate 62 g/ha, Postemergence) | Plant response rating, Wild oats ([12]; Rate 125 g/ha, Postemergence) | Plant response rating, Soybean ([14]; Rate 62 g/ha, Postemergence) | Plant response rating, Soybean ([14]; Rate 250 g/ha, Preemergence) | Plant response rating, Soybean ([14]; Rate 500 g/ha, Preemergence)
9: Plant response rating, Redroot pigweed ([1]; Rate 62 g/ha, Postemergence) | Plant response rating, Redroot pigweed ([1]; Rate 125 g/ha, Postemergence) | Redroot pigweed plant response rating ([1]; Rate 125 g/ha, Preemergence) | Plant response rating, Redroot pigweed ([1]; Rate 250 g/ha, Postemergence) | Plant response rating, Redroot pigweed ([1]; Rate 250 g/ha, Preemergence) | Plant response rating, Redroot pigweed ([1]; Rate 500 g/ha, Postemergence) | Plant response rating, Redroot pigweed ([1]; Rate 500 g/ha, Preemergence) | Plant response rating, Morningglory ([3]; Rate 62 g/ha, Postemergence) | Plant response rating, Morningglory ([3]; Rate 125 g/ha, Postemergence) | Plant response rating, Morningglory ([3]; Rate 250 g/ha, Postemergence) | Plant response rating, Morningglory ([3]; Rate 500 g/ha, Postemergence) | Plant response rating, B. signalgrass ([6]; Rate 500 g/ha, Preemergence) | Plant response rating, Rape ([9]; Rate 125 g/ha, Postemergence) | Plant response rating, Rape ([9]; Rate 250 g/ha, Postemergence) | Plant response rating, Rape ([9]; Rate 500 g/ha, Postemergence) | Plant response rating, Bedstraw ([10]; Rate 125 g/ha, Postemergence) | Plant response rating, Sugarbeets ([13]; Rate 500 g/ha, Postemergence)
10: Plant response rating, Crabgrass ([2]; Rate 500 g/ha, Preemergence) | Plant response rating, Morningglory ([3]; Rate 250 g/ha, Preemergence) | Plant response rating, Morningglory ([3]; Rate 500 g/ha, Preemergence) | Plant response rating, Bedstraw ([10]; Rate 250 g/ha, Postemergence) | Plant response rating, Bedstraw ([10]; Rate 500 g/ha, Postemergence) | Plant response rating, Sugarbeets ([13]; Rate 250 g/ha, Preemergence) | Plant response rating, Sugarbeets ([13]; Rate 500 g/ha, Preemergence)
5: Plant response rating, B. signalgrass ([6]; Rate 125 g/ha, Postemergence) | Rape plant response rating ([9]; Rate 125 g/ha, Preemergence) | Plant response rating, Wild oats ([12]; Rate 500 g/ha, Postemergence) | Plant response rating, Soybean ([14]; Rate 125 g/ha, Postemergence) | Plant response rating, Soybean ([14]; Rate 250 g/ha, Postemergence) | Plant response rating, Soybean ([14]; Rate 500 g/ha, Postemergence)
8: Plant response rating, Crabgrass ([2]; Rate 250 g/ha, Preemergence) | Plant response rating, Velvetleaf ([5]; Rate 250 g/ha, Postemergence) | Plant response rating, Velvetleaf ([5]; Rate 500 g/ha, Postemergence) | B. signalgrass plant response rating ([6]; Rate 125 g/ha, Preemergence) | Plant response rating, B. signalgrass ([6]; Rate 250 g/ha, Preemergence) | Plant response rating, Cocklebur ([7]; Rate 125 g/ha, Postemergence) | Plant response rating, Cocklebur ([7]; Rate 250 g/ha, Postemergence) | Plant response rating, Cocklebur ([7]; Rate 500 g/ha, Postemergence) | Plant response rating, Bedstraw ([10]; Rate 500 g/ha, Preemergence) | Plant response rating, Sugarbeets ([13]; Rate 125 g/ha, Postemergence) | Sugarbeets plant response rating ([13]; Rate 125 g/ha, Preemergence) | Plant response rating, Sugarbeets ([13]; Rate 250 g/ha, Postemergence)
2: Plant response rating, Crabgrass ([2]; Rate 62 g/ha, Postemergence) | Plant response rating, Corn ([4]; Rate 62 g/ha, Postemergence) | Plant response rating, Corn ([4]; Rate 125 g/ha, Postemergence) | Plant response rating, Corn ([4]; Rate 500 g/ha, Preemergence) | Plant response rating, Cocklebur ([7]; Rate 250 g/ha, Preemergence) | Bedstraw plant response rating ([10]; Rate 62 g/ha, Preemergence) | Plant response rating, Blackgrass ([11]; Rate 62 g/ha, Postemergence) | Wild oats plant response rating ([12]; Rate 125 g/ha, Preemergence) | Soybean plant response rating ([14]; Rate 125 g/ha, Preemergence)
0: Corn plant response rating ([4]; Rate 62 g/ha, Preemergence) | Corn plant response rating ([4]; Rate 125 g/ha, Preemergence) | Plant response rating, Corn ([4]; Rate 250 g/ha, Preemergence) | Cocklebur plant response rating ([7]; Rate 62 g/ha, Preemergence) | Wheat plant response rating ([8]; Rate 62 g/ha, Preemergence) | Wheat plant response rating ([8]; Rate 125 g/ha, Preemergence) | Plant response rating, Wheat ([8]; Rate 250 g/ha, Preemergence) | Plant response rating, Wheat ([8]; Rate 500 g/ha, Preemergence) | Rape plant response rating ([9]; Rate 62 g/ha, Preemergence) | Soybean plant response rating ([14]; Rate 62 g/ha, Preemergence)
